Test [1] concerns the target T1, pseudo-kinase domain (JH2, amino-acids 536-812) of human V617F mutant JAK2 (Homo sapiens, UniProt O60674, F794H/V617F/W659A/W777A).
T1 construct: pseudo-kinase domain (JH2, amino-acids 536-812 with 3 surface mutations W659A, W777A, F794H); His (C); purchased BPS Bioscience 79498; host or cells: baculovirus expression system
Description: JAK2 LanthaScreen JH2-V617F Binding Assay. To be noted: JAK2 JH2-V617F 0.26 nM, 50 nM tracer, 1 hour at 25° C.; read-out: JH2 BIND V617F. The procedure:
Example C. JAK2 LanthaScreen JH2-V617F Binding Assay
JAK2 JH2-V617F binding assay utilizes pseudo-kinase domain (JH2, amino-acids 536-812 with 3 surface mutations W659A, W777A, F794H) of human V617F mutant JAK2 expressed as C-terminal His-Avi-tagged, biotinylated protein in a baculovirus expression system (BPS Bioscience, Catalog #79498). The assay was conducted in black 384-well polystyrene plates in a final reaction volume of 20 μL. JAK2 JH2-V617F (0.26 nM) was incubated with compounds (100 nL serially diluted in DMSO) in the presence of 50 nM Fluorescent JAK2-JH2 Tracer (MedChem Express Catalog #HY-102055) and 0.25 nM Streptavidin-Tb cryptate (Cisbio Part #610SATLB) in assay buffer (50 mM Tris, pH=7.5, 10 mM MgCl2, 0.01% Brij-35, 0.1% BSA, 1 mM EGTA, 5% Glycerol and 5 mM DTT). Non-specific binding was accessed in the presence of 2 mM ATP. After incubation for 1 hour at 25° C., LanthaScreen signals were read on a PHERAstar FS plate reader (BMG LABTECH). Data was analyzed with IDBS XLfit and GraphPad Prism 5.0 software using a four parameter dose response curve to determine IC50 for each compound.

Test [2] has as its target catalytic domain (JH1, amino acids 808-1132) of human JAK2 (Homo sapiens, UniProt O60674). Description: JAK2 HTRF Enzyme Activity Assay. In kind it is biochemical. Particulars: ATP 30 µM, 60 minutes at 25° C.; read-out: V617F ENZ 30 UM. (In general: TR-FRET usually uses a lanthanide donor and a delayed reading to cut background.)

catalytic domain (JH1, amino acids 808-1132) of human JAK2, sequence (O60674 808-1132 limits assumed): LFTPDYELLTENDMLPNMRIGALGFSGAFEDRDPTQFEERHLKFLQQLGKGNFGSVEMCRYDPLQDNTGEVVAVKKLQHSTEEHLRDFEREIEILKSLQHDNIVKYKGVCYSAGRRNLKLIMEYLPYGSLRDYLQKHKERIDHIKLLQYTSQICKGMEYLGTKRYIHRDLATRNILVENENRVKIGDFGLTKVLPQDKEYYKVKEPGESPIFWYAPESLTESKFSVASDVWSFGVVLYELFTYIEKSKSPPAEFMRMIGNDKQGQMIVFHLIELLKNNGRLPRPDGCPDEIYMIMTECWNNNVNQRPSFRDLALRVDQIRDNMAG
T1 sequence (O60674 536-812 V617F/W659A/W777A/F794H): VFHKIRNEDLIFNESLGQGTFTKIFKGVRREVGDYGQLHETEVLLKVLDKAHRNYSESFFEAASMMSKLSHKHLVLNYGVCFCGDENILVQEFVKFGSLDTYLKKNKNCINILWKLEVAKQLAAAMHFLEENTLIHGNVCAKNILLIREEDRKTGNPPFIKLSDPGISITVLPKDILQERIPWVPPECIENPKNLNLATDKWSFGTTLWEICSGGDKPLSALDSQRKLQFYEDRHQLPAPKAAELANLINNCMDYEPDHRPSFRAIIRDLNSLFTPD

With `[2H]C([2H])([2H])n1c(=O)n([C@@H]2CC[C@](C)(NC(C)=O)C2)c2cc(Nc3cc(C(C)(C)O)cc(-c4ncc(Cl)s4)n3)ncc21` [Example 136, N-((1S,3R)-3-(6-((6-(5-Chlorothiazol-2-yl)-4-(2-hydroxypropan-2-yl)pyridin-2-yl)amino)-3-(methyl-d3)-2-oxo-2,3-dihydro-1H-imidazo[4,5-c]pyridin-1-yl)-1-methylcyclopentyl)acetamide], the values for the IC50 in test [1] and in test [2] were at most 10 nM and over 1000 nM, respectively.
On the same counts, the results for `[2H]C([2H])([2H])n1c(=O)n([C@@H]2CC[C@](C)(NC(C)=O)C2)c2cc(Nc3cc(-c4cnccc4C(F)(F)F)c4nc(C)c(-c5cnn(C(F)F)c5)n4n3)ncc21` [Example 168, N-((1S,3R)-3-(6-((3-(1-(Difluoromethyl)-1H-pyrazol-4-yl)-2-methyl-8-(4-(trifluoromethyl)pyridin-3-yl)imidazo[1,2-b]pyridazin-6-yl)amino)-3-(methyl-d3)-2-oxo-2,3-dihydro-1H-imidazo[4,5-c]pyridin-1-yl)-1-methylcyclopentyl)acetamide] are at most 10 nM and over 1000 nM.
On the same counts, the results for `[2H]C([2H])([2H])n1c(=O)n([C@@H]2CC[C@](C)(NC(C)=O)C2)c2cc(Nc3ccc4c(n3)c(-c3cnn(C(F)(F)F)c3)nn4CC(C)(C)O)ncc21` [Example 129, N-((1S,3R)-3-(6-((1-(2-Hydroxy-2-methylpropyl)-3-(1-(trifluoromethyl)-1H-pyrazol-4-yl)-1H-pyrazolo[4,3-b]pyridin-5-yl)amino)-3-(methyl-d3)-2-oxo-2,3-dihydro-1H-imidazo[4,5-c]pyridin-1-yl)-1-methylcyclopentyl)acetamide] are at most 10 nM and over 1000 nM.
The corresponding values for `[2H]C([2H])([2H])n1c(=O)n([C@H]2C[C@H](NC(=O)OC)[C@@H](O)C2)c2cc(Nc3cc(C(C)(C)O)cc(-c4ncc(C(F)(F)F)s4)n3)ncc21` [Example 155, Methyl ((1S,2S,4S)-2-hydroxy-4-(6-((4-(2-hydroxypropan-2-yl)-6-(5-(trifluoromethyl)thiazol-2-yl)pyridin-2-yl)amino)-3-(methyl-d3)-2-oxo-2,3-dihydro-1H-imidazo[4,5-c]pyridin-1-yl)cyclopentyl)carbamate] are at most 10 nM and over 1000 nM.
On to `[2H]C([2H])([2H])n1c(=O)n(C23CCC(C(N)=O)(CC2)CC3)c2cc(Nc3cc(C(C)(C)O)cc(-c4ncc(C(F)(F)F)s4)n3)ncc21` [Example 139, 4-(6-((4-(2-Hydroxypropan-2-yl)-6-(5-(trifluoromethyl)thiazol-2-yl)pyridin-2-yl)amino)-3-(methyl-d3)-2-oxo-2,3-dihydro-1H-imidazo[4,5-c]pyridin-1-yl)bicyclo[2.2.2]octane-1-carboxamide], for which the IC50 in test [1] is at most 10 nM; in test [2] it was over 1000 nM.
With `[2H]C([2H])([2H])n1c(=O)n([C@@H]2CC[C@](C)(NC(=O)CC)C2)c2cc(Nc3cc(C(C)(C)O)cc(-c4ncc(C(F)(F)F)s4)n3)ncc21` [Example 143, N-((1S,3R)-3-(6-((4-(2-Hydroxypropan-2-yl)-6-(5-(trifluoromethyl)thiazol-2-yl)pyridin-2-yl)amino)-3-(methyl-d3)-2-oxo-2,3-dihydro-1H-imidazo[4,5-c]pyridin-1-yl)-1-methylcyclopentyl)propionamide], the IC50 in test [1] was at most 10 nM; in test [2] it was over 1000 nM.
For `[2H]C([2H])([2H])n1c(=O)n([C@H]2CC[C@@](C)(NC(=O)C3CC3)CC2)c2cc(Nc3ccc4c(n3)c(-c3cnn(C(F)(F)F)c3)nn4[C@H]3CC[C@H](O)CC3)ncc21` [Example 126, N-((1s,4s)-4-(6-((1-((1r,4r)-4-Hydroxycyclohexyl)-3-(1-(trifluoromethyl)-1H-pyrazol-4-yl)-1H-pyrazolo[4,3-b]pyridin-5-yl)amino)-3-(methyl-d3)-2-oxo-2,3-dihydro-1H-imidazo[4,5-c]pyridin-1-yl)-1-methylcyclohexyl)cyclopropanecarboxamide], the IC50 in test [1] is at most 10 nM; in test [2], over 1000 nM.
The corresponding values for `[2H]C([2H])([2H])c1cc(Nc2cc3c(cn2)n(C([2H])([2H])[2H])c(=O)n3[C@@H]2CC[C@@]([2H])(NC(=O)OC)C2)nc(-c2ncc(C(C)(C)O)s2)c1` [Example 150, Methyl ((1R,3R)-3-(6-((6-(5-(2-hydroxypropan-2-yl)thiazol-2-yl)-4-(methyl-d3)pyridin-2-yl)amino)-3-(methyl-d3)-2-oxo-2,3-dihydro-1H-imidazo[4,5-c]pyridin-1-yl)cyclopentyl-1-d)carbamate] are at most 10 nM and over 1000 nM.
As for `[2H]C1(NC(=O)OC)CC[C@@H](n2c(=O)n(C([2H])([2H])[2H])c3cnc(Nc4ccc5c(n4)c(-c4cnn(C(F)(F)F)c4)nn5CC4(C#N)CC4)cc32)C1` (stereo partly drawn) [Example 133, Methyl ((3R)-3-(6-((1-((1-cyanocyclopropyl)methyl)-3-(1-(trifluoromethyl)-1H-pyrazol-4-yl)-1H-pyrazolo[4,3-b]pyridin-5-yl)amino)-3-(methyl-d3)-2-oxo-2,3-dihydro-1H-imidazo[4,5-c]pyridin-1-yl)cyclopentyl-1-d)carbamate], the IC50 in test [1] is at most 10 nM; in test [2], over 1000 nM.
In the case of `[2H]C1(NC(=O)OC)CC[C@@H](n2c(=O)n(C([2H])([2H])[2H])c3cnc(Nc4ccc5c(n4)c(-c4cnn(C(F)(F)F)c4)nn5CC(C)(C)O)cc32)C1` (single isomer, unassigned) [Example 125], the IC50 in test [1] is at most 10 nM; in test [2], over 1000 nM.
The corresponding values for `[2H]C([2H])([2H])n1c(=O)n([C@@H]2CC[C@@]([2H])(NC(=O)OC)C2)c2cc(Nc3cc(C)cc(-c4ncc(C(C)(C)O)s4)n3)ncc21` [Example 148, Methyl ((1R,3R)-3-(6-((6-(5-(2-hydroxypropan-2-yl)thiazol-2-yl)-4-methylpyridin-2-yl)amino)-3-(methyl-d3)-2-oxo-2,3-dihydro-1H-imidazo[4,5-c]pyridin-1-yl)cyclopentyl-1-d)carbamate] are at most 10 nM and over 1000 nM.
As for `[2H]C([2H])([2H])n1c(=O)n([C@@H]2CC[C@@]([2H])(NC(=O)OC)C2)c2cc(Nc3cc(C(C)(C)O)cc(-c4ncc(C(F)(F)F)s4)n3)ncc21` [Example 158, Methyl ((1R,3R)-3-(6-((4-(2-hydroxypropan-2-yl)-6-(5-(trifluoromethyl)thiazol-2-yl)pyridin-2-yl)amino)-3-(methyl-d3)-2-oxo-2,3-dihydro-1H-imidazo[4,5-c]pyridin-1-yl)cyclopentyl-1-d)carbamate], the values for the IC50 in test [1] and in test [2] were at most 10 nM and over 1000 nM, respectively.
The corresponding values for `[2H]C1(NC(=O)OC)CC[C@@H](n2c(=O)n(C([2H])([2H])[2H])c3cnc(Nc4ccc5c(n4)c(-c4cnn(C(F)(F)F)c4)cn5C4CCOCC4)cc32)C1` (stereo partly drawn) [Example 111, Methyl ((3R)-3-(3-(methyl-d3)-2-oxo-6-((1-(tetrahydro-2H-pyran-4-yl)-3-(1-(trifluoromethyl)-1H-pyrazol-4-yl)-1H-pyrrolo[3,2-b]pyridin-5-yl)amino)-2,3-dihydro-1H-imidazo[4,5-c]pyridin-1-yl)cyclopentyl-1-d)carbamate] are at most 10 nM and over 1000 nM.
The corresponding values for `[2H]C([2H])([2H])n1c(=O)n([C@@H]2CC[C@@]([2H])(NC(=O)OC)C2)c2cc(Nc3cc(-c4cnccc4C(F)(F)F)cc(-c4ncc(C(C)(C)O)s4)n3)ncc21` [Example 164, Methyl ((1R,3R)-3-(6-((6′-(5-(2-hydroxypropan-2-yl)thiazol-2-yl)-4-(trifluoromethyl)-[3,4′-bipyridin]-2′-yl)amino)-3-(methyl-d3)-2-oxo-2,3-dihydro-1H-imidazo[4,5-c]pyridin-1-yl)cyclopentyl-1-d)carbamate] are at most 10 nM and over 1000 nM.
As to `[2H]C([2H])([2H])n1c(=O)n([C@@H]2CC[C@@]([2H])(NC(=O)OC)C2)c2cc(Nc3cc(C)c(F)c(-c4ncc(C(C)(C)O)s4)n3)ncc21` [Example 149, Methyl ((1R,3R)-3-(6-((5-fluoro-6-(5-(2-hydroxypropan-2-yl)thiazol-2-yl)-4-methylpyridin-2-yl)amino)-3-(methyl-d3)-2-oxo-2,3-dihydro-1H-imidazo[4,5-c]pyridin-1-yl)cyclopentyl-1-d)carbamate], the IC50 is at most 10 nM in test [1] and over 1000 nM in test [2].
With `[2H]C1(NC(=O)OC)CC[C@@H](n2c(=O)n(C([2H])([2H])[2H])c3cnc(Nc4ccc5c(n4)c(-c4cnn(C(F)(F)F)c4)cn5C4(C#N)CC4)cc32)C1` (stereo partly drawn) [Example 113, Methyl ((3R)-3-(6-((1-(1-cyanocyclopropyl)-3-(1-(trifluoromethyl)-1H-pyrazol-4-yl)-1H-pyrrolo[3,2-b]pyridin-5-yl)amino)-3-(methyl-d3)-2-oxo-2,3-dihydro-1H-imidazo[4,5-c]pyridin-1-yl)cyclopentyl-1-d)carbamate], the IC50 in test [1] is at most 10 nM; in test [2] it was over 1000 nM.

For the origin of these results see patent US20240317744A1, “Bicyclic Ureas As Kinase Inhibitors” (Incyte Corporation, priority 2023, published 2024).
